Data from PubChem BioAssay (NCI).
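Tested at 5 concentrations; 48 h exposure; 96-well plates; endpoints linearly interpolated, else capped at highest concentration. GI50: concentration for 50% inhibition of growth. The concentration for full growth arrest is given as TGI.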

Columns and labels:
Test in all cases: inhibition of tumour cell growth, NCI panel, 48 h
A498 renal = test system: A498 renal
NCI-H23 lung = test system: NCI-H23 lung
SK-MEL-5 melanoma = test system: SK-MEL-5 melanoma
HS 578T breast = test system: HS 578T breast
SF-268 CNS = test system: SF-268 CNS
MALME-3M melanoma = test system: MALME-3M melanoma
786-0 renal = test system: 786-0 renal
M14 melanoma = test system: M14 melanoma
MDA-MB-231 breast = test system: MDA-MB-231 breast
K-562 leukemia = test system: K-562 leukemia
OVCAR-5 ovarian = test system: OVCAR-5 ovarian
MDA-MB-435 = test system: MDA-MB-435
OVCAR-4 ovarian = test system: OVCAR-4 ovarian
SK-OV-3 ovarian = test system: SK-OV-3 ovarian
KM12 colon = test system: KM12 colon
MCF7 breast = test system: MCF7 breast
COLO 205 colon = test system: COLO 205 colon
UACC-257 melanoma = test system: UACC-257 melanoma
OVCAR-8 ovarian = test system: OVCAR-8 ovarian
NCI-H226 lung = test system: NCI-H226 lung
A549 NSCLC = test system: A549 NSCLC
HOP-92 NSCLC = test system: HOP-92 NSCLC
LOX IMVI melanoma = test system: LOX IMVI melanoma
HT29 colon = test system: HT29 colon
U251 CNS = test system: U251 CNS
T-47D breast = test system: T-47D breast
NCI-H522 lung = test system: NCI-H522 lung
UO-31 renal = test system: UO-31 renal

O=c1c2cc(-c3ccc(F)cc3F)ccc2n(Nc2ccccc2)c(=O)n1-c1cccc(C(F)(F)F)c1
GI50 (A498 renal): 0.358 µM
TGI (A498 renal): 1.25 µM
GI50 (NCI-H23 lung): 1.06 µM
TGI (NCI-H23 lung): 4.32 µM
GI50 (SK-MEL-5 melanoma): 0.354 µM
TGI (SK-MEL-5 melanoma): 1.35 µM
GI50 (HS 578T breast): 1.06 µM
TGI (HS 578T breast): 4.2 µM
GI50 (SF-268 CNS): 1.7 µM
TGI (SF-268 CNS): 7.98 µM
GI50 (MALME-3M melanoma): 1.5 µM
TGI (MALME-3M melanoma): 5.05 µM
GI50 (786-0 renal): 1.86 µM
TGI (786-0 renal): 3.83 µM
GI50 (M14 melanoma): 1.65 µM
TGI (M14 melanoma): 4.17 µM
GI50 (MDA-MB-231 breast): 1.78 µM
TGI (MDA-MB-231 breast): 5.62 µM
GI50 (K-562 leukemia): 0.717 µM
TGI (K-562 leukemia): > 100 µM
GI50 (OVCAR-5 ovarian): 3.15 µM
TGI (OVCAR-5 ovarian): 56.3 µM
GI50 (MDA-MB-435): 1.52 µM
TGI (MDA-MB-435): 5.04 µM
GI50 (OVCAR-4 ovarian): 2.67 µM
TGI (OVCAR-4 ovarian): > 100 µM
GI50 (SK-OV-3 ovarian): 1.27 µM
TGI (SK-OV-3 ovarian): 3.01 µM
GI50 (KM12 colon): 2.17 µM
TGI (KM12 colon): 5.66 µM
GI50 (MCF7 breast): 1.81 µM
TGI (MCF7 breast): 7.44 µM
GI50 (COLO 205 colon): 1.8 µM
TGI (COLO 205 colon): 3.27 µM
GI50 (UACC-257 melanoma): 0.963 µM
TGI (UACC-257 melanoma): 3.82 µM
GI50 (OVCAR-8 ovarian): 1.23 µM
TGI (OVCAR-8 ovarian): 3.72 µM
GI50 (NCI-H226 lung): 1.32 µM
TGI (NCI-H226 lung): 3.42 µM
GI50 (A549 NSCLC): 2.96 µM
TGI (A549 NSCLC): 12.7 µM
GI50 (HOP-92 NSCLC): 0.19 µM
TGI (HOP-92 NSCLC): 0.679 µM
GI50 (LOX IMVI melanoma): 1.53 µM
TGI (LOX IMVI melanoma): 3.12 µM
GI50 (HT29 colon): 2.84 µM
TGI (HT29 colon): 7.74 µM
GI50 (U251 CNS): 1.74 µM
TGI (U251 CNS): 10.3 µM
GI50 (T-47D breast): 1.4 µM
TGI (T-47D breast): 5.37 µM
GI50 (NCI-H522 lung): 0.44 µM
TGI (NCI-H522 lung): 2.41 µM
GI50 (UO-31 renal): 1.98 µM
TGI (UO-31 renal): 5.96 µM
